Results: PubChem BioAssay (NCI)
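These data come from cells grown in 96-well plates and exposed to compound for 48 hours at five concentrations. GI50 marks 50% less growth. At the TGI there is no net growth.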

Experiments:
Assay in all cases: DTP human tumour cell line panel, 48 h
A498 renal = system: A498 renal
DU-145 prostate = system: DU-145 prostate
EKVX NSCLC = system: EKVX NSCLC
HOP-92 NSCLC = system: HOP-92 NSCLC
IGROV1 ovarian = system: IGROV1 ovarian
M14 melanoma = system: M14 melanoma
MDA-MB-435 = system: MDA-MB-435
NCI-H226 lung = system: NCI-H226 lung
SF-295 CNS = system: SF-295 CNS
SK-MEL-2 melanoma = system: SK-MEL-2 melanoma

NC(=NCCCOc1ccc(Cl)cc1)Nc1ccc(C(F)(F)F)cc1
GI50 (A498 renal): 2.08 µM
TGI (A498 renal): 6.08 µM
GI50 (DU-145 prostate): 2.62 µM
TGI (DU-145 prostate): 7.26 µM
GI50 (EKVX NSCLC): 2.51 µM
TGI (EKVX NSCLC): 8.65 µM
GI50 (HOP-92 NSCLC): 0.849 µM
TGI (HOP-92 NSCLC): 4.63 µM
GI50 (IGROV1 ovarian): 1.47 µM
TGI (IGROV1 ovarian): 4.12 µM
GI50 (M14 melanoma): 1.69 µM
TGI (M14 melanoma): 3.46 µM
GI50 (MDA-MB-435): 1.73 µM
TGI (MDA-MB-435): 3.45 µM
GI50 (NCI-H226 lung): 3.87 µM
TGI (NCI-H226 lung): 19.2 µM
GI50 (SF-295 CNS): 1.7 µM
TGI (SF-295 CNS): 3.28 µM
GI50 (SK-MEL-2 melanoma): 1.87 µM
TGI (SK-MEL-2 melanoma): 3.88 µM

CC(C)c1ccc(Nc2ccc3c(OCCCN4CCN(C)CC4)cccc3n2)cc1
GI50 (A498 renal): 16.4 µM
TGI (A498 renal): 36.8 µM
GI50 (DU-145 prostate): 13.9 µM
TGI (DU-145 prostate): 26.9 µM
GI50 (EKVX NSCLC): 14 µM
TGI (EKVX NSCLC): 28.3 µM
GI50 (HOP-92 NSCLC): 10.6 µM
TGI (HOP-92 NSCLC): 27.4 µM
GI50 (IGROV1 ovarian): 16.1 µM
TGI (IGROV1 ovarian): 32.6 µM
GI50 (M14 melanoma): 2.85 µM
TGI (M14 melanoma): 10.4 µM
GI50 (MDA-MB-435): 6.62 µM
TGI (MDA-MB-435): 21.4 µM
GI50 (NCI-H226 lung): 18.8 µM
TGI (NCI-H226 lung): 38.7 µM
GI50 (SF-295 CNS): 3.63 µM
TGI (SF-295 CNS): 15.3 µM
GI50 (SK-MEL-2 melanoma): 19.6 µM
TGI (SK-MEL-2 melanoma): 36.5 µM

COc1ncnc(C2CC2)c1-c1ncc2cnn(Cc3ccc(-c4nc(C(F)(F)F)cn4C(C)C)cc3)c2n1
GI50 (A498 renal): 24.5 µM
TGI (A498 renal): > 100 µM
GI50 (DU-145 prostate): 22.1 µM
TGI (DU-145 prostate): > 100 µM
GI50 (EKVX NSCLC): 19 µM
TGI (EKVX NSCLC): 95.3 µM
GI50 (HOP-92 NSCLC): 6.41 µM
TGI (HOP-92 NSCLC): 73.5 µM
GI50 (IGROV1 ovarian): 21.1 µM
TGI (IGROV1 ovarian): > 100 µM
GI50 (M14 melanoma): 28.1 µM
TGI (M14 melanoma): > 100 µM
GI50 (MDA-MB-435): 19.8 µM
TGI (MDA-MB-435): 51.6 µM
GI50 (NCI-H226 lung): 9.08 µM
TGI (NCI-H226 lung): 50.7 µM
GI50 (SF-295 CNS): 18.4 µM
TGI (SF-295 CNS): 65.1 µM
GI50 (SK-MEL-2 melanoma): 14.5 µM
TGI (SK-MEL-2 melanoma): 30.4 µM

O=c1c2ccccc2[se]n1-c1cccnc1
TGI (A498 renal): 61.9 µM
TGI (DU-145 prostate): 34.6 µM
TGI (EKVX NSCLC): > 100 µM
TGI (HOP-92 NSCLC): 36.1 µM
TGI (IGROV1 ovarian): 46.7 µM
TGI (M14 melanoma): 83.7 µM
TGI (MDA-MB-435): 46.4 µM
TGI (NCI-H226 lung): > 100 µM
TGI (SF-295 CNS): > 100 µM
TGI (SK-MEL-2 melanoma): 47.9 µM

O=S(=O)([O-])c1ccc2c(c1)-c1nc-2nc2[n-]c(nc3nc(nc4[n-]c(n1)c1ccc(S(=O)(=O)[O-])cc41)-c1cc(S(=O)(=O)[O-])ccc1-3)c1ccc(S(=O)(=O)[O-])cc21.[Cu+2].[Na+]
GI50 (A498 renal): > 100 µM
TGI (A498 renal): > 100 µM
GI50 (DU-145 prostate): > 100 µM
TGI (DU-145 prostate): > 100 µM
GI50 (EKVX NSCLC): > 60.4 µM
TGI (EKVX NSCLC): > 100 µM
GI50 (HOP-92 NSCLC): 38.9 µM
TGI (HOP-92 NSCLC): > 100 µM
GI50 (IGROV1 ovarian): > 100 µM
TGI (IGROV1 ovarian): > 100 µM
GI50 (M14 melanoma): > 37.4 µM
TGI (M14 melanoma): > 100 µM
GI50 (MDA-MB-435): > 100 µM
TGI (MDA-MB-435): > 100 µM
GI50 (NCI-H226 lung): > 100 µM
TGI (NCI-H226 lung): > 100 µM
GI50 (SF-295 CNS): 98.4 µM
TGI (SF-295 CNS): > 100 µM
GI50 (SK-MEL-2 melanoma): > 100 µM
TGI (SK-MEL-2 melanoma): > 100 µM

COc1ccc(N2C(=O)C(c3ccccc3)(c3ccccc3)C23C(=O)N(C)c2ccccc23)cc1 (stereo not given)
GI50 (A498 renal): > 100 µM
TGI (A498 renal): > 100 µM
GI50 (DU-145 prostate): > 100 µM
TGI (DU-145 prostate): > 100 µM
GI50 (EKVX NSCLC): > 100 µM
TGI (EKVX NSCLC): > 100 µM
GI50 (HOP-92 NSCLC): > 100 µM
TGI (HOP-92 NSCLC): > 100 µM
GI50 (IGROV1 ovarian): > 100 µM
TGI (IGROV1 ovarian): > 100 µM
GI50 (M14 melanoma): > 100 µM
TGI (M14 melanoma): > 100 µM
GI50 (MDA-MB-435): > 100 µM
TGI (MDA-MB-435): > 100 µM
GI50 (NCI-H226 lung): > 100 µM
TGI (NCI-H226 lung): > 100 µM
GI50 (SF-295 CNS): > 100 µM
TGI (SF-295 CNS): > 100 µM
GI50 (SK-MEL-2 melanoma): > 100 µM
TGI (SK-MEL-2 melanoma): > 100 µM

Cc1c2cccnc2c(C)c2c1c1cc(CO)ccc1n2C
GI50 (A498 renal): 0.104 µM
TGI (A498 renal): 0.243 µM
GI50 (DU-145 prostate): 3.09 µM
TGI (DU-145 prostate): 11.9 µM
GI50 (EKVX NSCLC): 1.4 µM
TGI (EKVX NSCLC): 9.86 µM
GI50 (HOP-92 NSCLC): 2.1 µM
TGI (HOP-92 NSCLC): 7.31 µM
GI50 (IGROV1 ovarian): 0.579 µM
TGI (IGROV1 ovarian): 9.34 µM
GI50 (M14 melanoma): 2.49 µM
TGI (M14 melanoma): 10.4 µM
GI50 (MDA-MB-435): 3.06 µM
TGI (MDA-MB-435): 13.7 µM
GI50 (NCI-H226 lung): 0.264 µM
TGI (NCI-H226 lung): 1.33 µM
GI50 (SF-295 CNS): 1.74 µM
TGI (SF-295 CNS): 10.1 µM
GI50 (SK-MEL-2 melanoma): 2.87 µM
TGI (SK-MEL-2 melanoma): 8.47 µM

Clc1coc2nc3ccccc3c(Nc3ccc4c(c3)OCO4)c12
GI50 (A498 renal): 1.14 µM
TGI (A498 renal): 5.82 µM
GI50 (DU-145 prostate): 2.58 µM
TGI (DU-145 prostate): 17.2 µM
GI50 (EKVX NSCLC): 5.35 µM
TGI (EKVX NSCLC): 30.4 µM
GI50 (HOP-92 NSCLC): 8 µM
TGI (HOP-92 NSCLC): 63.2 µM
GI50 (IGROV1 ovarian): 5.95 µM
TGI (IGROV1 ovarian): > 100 µM
GI50 (M14 melanoma): 0.699 µM
TGI (M14 melanoma): 13.8 µM
GI50 (MDA-MB-435): 0.62 µM
TGI (MDA-MB-435): 1.46 µM
GI50 (NCI-H226 lung): 2.35 µM
TGI (NCI-H226 lung): > 26.2 µM
GI50 (SF-295 CNS): 1.21 µM
TGI (SF-295 CNS): 4.42 µM
GI50 (SK-MEL-2 melanoma): 5.99 µM
TGI (SK-MEL-2 melanoma): > 100 µM

C=C(C=O)C1CCC2(C(=O)O)CCC3(C)C(CCC4C5(C)CCC(O)C(C)(C)C5CCC43C)C12 (stereo not given)
GI50 (A498 renal): 4.77 µM
TGI (A498 renal): 14.4 µM
GI50 (DU-145 prostate): 1.6 µM
TGI (DU-145 prostate): 3.55 µM
GI50 (EKVX NSCLC): 6.23 µM
TGI (EKVX NSCLC): > 61.7 µM
GI50 (HOP-92 NSCLC): 19.7 µM
TGI (HOP-92 NSCLC): 64.6 µM
GI50 (IGROV1 ovarian): 1.92 µM
TGI (IGROV1 ovarian): 4.21 µM
GI50 (M14 melanoma): 2.23 µM
TGI (M14 melanoma): 6.92 µM
GI50 (MDA-MB-435): 2.74 µM
TGI (MDA-MB-435): 24.3 µM
GI50 (NCI-H226 lung): 14.3 µM
TGI (NCI-H226 lung): > 100 µM
GI50 (SF-295 CNS): 3.39 µM
TGI (SF-295 CNS): 15.1 µM
GI50 (SK-MEL-2 melanoma): 3.82 µM
TGI (SK-MEL-2 melanoma): 12 µM
